# System: rumen inoculum from fistulated cows
# Assay: In vitro batch culture incubation of a Senecio PA mixture with rumen inoculum
# Assay type: in vitro ADME
# Settings: incubation with rumen inoculum up to 20 h
row,SMILES,degradation rate in rumen incubation (half-life ranking)
1,C/C=C1/C[C@@H](C)[C@@](C)(O)C(=O)OCC2=CCN3CC[C@@H](OC1=O)[C@@H]23 [senecionine],fastest degradation
2,C/C=C1/C[C@@]2(CO)O[C@@]2(C)C(=O)OCC2=CCN3CC[C@@H](OC1=O)[C@@H]23 [erucifoline],ranged in the middle
3,C/C=C1/C[C@@H](C)[C@@](C)(O)C(=O)OC/C2=C/CN(C)CC[C@@H](OC1=O)C2=O [senkirkine],slower degradation rates
4,C=C1C/C(=C/C)C(=O)O[C@@H]2CCN3CC=C(COC(=O)[C@]1(C)O)[C@H]23 [seneciphylline],fastest degradation
